In patent US20220347175A1, “PYRIDAZINONE DERIVATIVE” (Sumitomo Dainippon Pharma Co., Ltd., priority 2018, published 2022):

What was measured:
human Nav1.1 = target: T1, human Nav1.1 (Homo sapiens, UniProt P35498); experiment: Amplification of Nav1.1-derived voltage-dependent sodium current (Nav1.1 current), cell line stably expressing human Nav1.1, automated patch clamp; format: cell-based
T1 construct: host or cells: HEK293
In short: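 Amplification rate (%) is 100 × post-compound/pre-compound Nav1.1 peak current or AUC, minus 100. Ramp-evoked sodium currents were recorded by automated patch clamp in a human Nav1.1 HEK293 stable line, restricted to cells exceeding 500 pA, with compounds added in extracellular solution containing 1% DMSO.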

human Nav1.5 = target: T2, human Nav1.5 (Homo sapiens, UniProt Q14524); experiment: Amplification of Nav1.5-derived voltage-dependent sodium current (Nav1.5 current), cell line stably expressing human Nav1.5, automated patch clamp; format: cell-based
T2 construct: expressed in transfected cells; host or cells: CHO-K1 (T-REx System, ThermoFisher Scientific)
T2 sequence (Q14524 1-2015 isoform Q14524-2): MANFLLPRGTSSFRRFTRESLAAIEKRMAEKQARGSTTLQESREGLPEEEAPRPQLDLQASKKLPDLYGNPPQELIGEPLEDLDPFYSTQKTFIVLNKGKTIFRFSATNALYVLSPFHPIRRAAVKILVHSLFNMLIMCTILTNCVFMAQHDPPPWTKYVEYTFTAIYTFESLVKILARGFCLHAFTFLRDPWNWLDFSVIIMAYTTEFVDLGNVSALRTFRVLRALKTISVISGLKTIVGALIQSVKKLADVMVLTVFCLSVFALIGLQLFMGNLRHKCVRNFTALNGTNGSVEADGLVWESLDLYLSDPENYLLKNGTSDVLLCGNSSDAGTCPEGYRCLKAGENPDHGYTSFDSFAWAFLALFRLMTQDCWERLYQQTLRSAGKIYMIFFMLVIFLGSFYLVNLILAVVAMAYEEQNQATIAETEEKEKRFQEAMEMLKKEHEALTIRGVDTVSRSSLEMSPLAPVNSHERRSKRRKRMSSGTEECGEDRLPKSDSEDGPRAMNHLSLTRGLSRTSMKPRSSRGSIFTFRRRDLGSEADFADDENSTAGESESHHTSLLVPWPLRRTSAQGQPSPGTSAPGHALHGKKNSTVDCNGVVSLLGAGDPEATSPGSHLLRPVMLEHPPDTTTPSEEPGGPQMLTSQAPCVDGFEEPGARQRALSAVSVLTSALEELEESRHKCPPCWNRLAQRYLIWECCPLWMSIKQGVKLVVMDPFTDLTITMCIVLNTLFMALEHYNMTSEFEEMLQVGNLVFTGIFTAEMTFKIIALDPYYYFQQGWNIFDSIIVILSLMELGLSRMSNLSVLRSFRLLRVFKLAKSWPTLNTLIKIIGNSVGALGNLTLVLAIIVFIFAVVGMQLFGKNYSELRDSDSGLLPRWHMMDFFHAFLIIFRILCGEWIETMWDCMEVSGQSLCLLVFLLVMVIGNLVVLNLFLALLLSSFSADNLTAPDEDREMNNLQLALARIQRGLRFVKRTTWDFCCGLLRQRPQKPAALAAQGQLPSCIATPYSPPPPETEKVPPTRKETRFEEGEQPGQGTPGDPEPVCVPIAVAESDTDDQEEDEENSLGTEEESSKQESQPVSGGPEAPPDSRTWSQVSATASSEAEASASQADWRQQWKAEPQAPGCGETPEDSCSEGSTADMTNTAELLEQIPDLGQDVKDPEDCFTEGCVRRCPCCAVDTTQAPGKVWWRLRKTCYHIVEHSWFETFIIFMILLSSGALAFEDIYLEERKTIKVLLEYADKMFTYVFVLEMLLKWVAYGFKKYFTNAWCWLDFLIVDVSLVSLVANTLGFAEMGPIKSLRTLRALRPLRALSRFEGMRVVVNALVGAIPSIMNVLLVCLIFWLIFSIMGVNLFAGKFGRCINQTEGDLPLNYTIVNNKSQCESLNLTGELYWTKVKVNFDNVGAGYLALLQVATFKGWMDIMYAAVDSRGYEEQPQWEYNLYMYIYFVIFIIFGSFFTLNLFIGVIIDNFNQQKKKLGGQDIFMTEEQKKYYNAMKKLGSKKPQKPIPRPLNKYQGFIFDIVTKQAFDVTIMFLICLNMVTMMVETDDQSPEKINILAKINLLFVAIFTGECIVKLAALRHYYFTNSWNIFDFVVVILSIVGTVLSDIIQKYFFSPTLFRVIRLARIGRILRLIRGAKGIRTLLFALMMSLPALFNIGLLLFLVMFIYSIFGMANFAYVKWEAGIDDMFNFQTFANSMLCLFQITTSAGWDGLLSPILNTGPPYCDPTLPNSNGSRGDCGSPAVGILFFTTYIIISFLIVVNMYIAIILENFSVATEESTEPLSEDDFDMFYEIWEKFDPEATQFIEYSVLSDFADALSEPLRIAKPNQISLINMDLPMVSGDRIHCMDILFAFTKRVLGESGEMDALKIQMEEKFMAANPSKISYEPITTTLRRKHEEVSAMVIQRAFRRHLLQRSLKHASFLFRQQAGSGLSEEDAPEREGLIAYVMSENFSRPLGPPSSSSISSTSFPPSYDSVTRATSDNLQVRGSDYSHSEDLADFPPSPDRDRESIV

[1] = 10 μmol/L compound, change of the area under the curve of Nav1.1 current (Test Result 1)
[2] = 10 μmol/L compound, change of the area under the curve of Nav1.5 current (Test Result 1)
[3] = compound 1 μmol/L, HEK293 stably expressing human Nav1.1
[4] = compound 1 μmol/L, CHO-K1 stably expressing human Nav1.5
[5] = 10 μmol/L compound, change of the area under the curve of Nav1.1 current (Test Result 1), read-out: Nav1.1 current amplification rate (%)
[6] = 10 μmol/L compound, change of the area under the curve of Nav1.5 current (Test Result 1), read-out: Nav1.5 current amplification rate (%)
[7] = compound 1 μmol/L, HEK293 stably expressing human Nav1.1, read-out: Nav1.1 current amplification rate (%)
[8] = compound 1 μmol/L, CHO-K1 stably expressing human Nav1.5, read-out: Nav1.5 current amplification rate (%)
[9] = compound 3 μmol/L, HEK293 stably expressing human Nav1.1
[10] = compound 3 μmol/L, CHO-K1 stably expressing human Nav1.5

SMILES	Nav1.1 current amplification rate (%) (human Nav1.1; [1])	activation at 10 µM (human Nav1.1; [5]) [%]	Nav1.5 current amplification rate (%) (human Nav1.5; [2])	activation at 10 µM (human Nav1.5; [6]) [%]	also measured
COC1CN(c2cccc3c2CCN3C(=O)Cn2nc(C3=CCC(C)(C)CC3)ccc2=O)C1 [Example 434]	232	–	142	–	–
CC1CC=C(c2ccc(=O)n(CC(=O)N3CCc4c(N5CCOCC5)cccc43)n2)CC1 (racemic) [Example 245]	–	–	–	–	Nav1.1 current amplification rate (%) (human Nav1.1; [3]): 393%; Nav1.5 current amplification rate (%) (human Nav1.5; [4]): 32%
CC1(C)CN(c2ccc(=O)n(CC(=O)Nc3ccc4ocnc4c3)n2)CCC12CC2(F)F (centres unmarked) [Example 214]	–	64	–	-1	–
CC1CC=C(c2ccc(=O)n(CC(=O)N3CCc4c(CNC5COC5)cccc43)n2)CC1 (racemic) [Example 313]	–	–	–	–	Nav1.1 current amplification rate (%) (human Nav1.1; [3]): 84%; Nav1.5 current amplification rate (%) (human Nav1.5; [4]): 133%
COc1cccc2c1CCN2C(=O)Cn1nc(C2=CCC(C)(C)CC2)ccc1=O [Example 431]	11	–	3	–	–
CC1CCN(c2ccc(=O)n(CC(=O)N3CCc4c(N5CCOCC5)cccc43)n2)CC1 [Example 218]	–	–	–	–	activation at 1 µM (human Nav1.1; [7]): 155%; activation at 1 µM (human Nav1.5; [8]): 9%
O=C(Cn1nc(-c2ccc(C(F)(F)F)nc2)ccc1=O)Nc1ccc2ocnc2c1 [Example 453]	15	–	1	–	–
CC1CC=C(c2ccc(=O)n(CC(=O)N3CCc4c(C5CCNC5)cccc43)n2)CC1 (mixture of isomers) [Example 268]	–	–	–	–	Nav1.1 current amplification rate (%) (human Nav1.1; [9]): 55%; Nav1.5 current amplification rate (%) (human Nav1.5; [10]): 22%
CC1CC=C(c2ccc(=O)n(CC(=O)Nc3ccc(C#N)nc3)n2)CC1 (racemic) [Example 360]	–	–	–	–	Nav1.1 current amplification rate (%) (human Nav1.1; [3]): 200%; Nav1.5 current amplification rate (%) (human Nav1.5; [4]): 100%
O=C(Cn1nc(C2=CCC(F)(F)CC2)ccc1=O)N1CCc2c(-c3ccnnc3)cccc21 [Example 527]	–	–	–	–	activation at 1 µM (human Nav1.1; [7]): 324%; activation at 1 µM (human Nav1.5; [8]): 36%
COc1cc(C2=CCC(C(F)(F)F)CC2)nn(CC(=O)Nc2ccn3ccnc3c2)c1=O (centres unmarked) [Example 462]	124	–	5	–	–
CC1CC=C(c2ccc(=O)n(CC(=O)N3CCc4c(C5CNC5)cccc43)n2)CC1 (racemic) [Example 299]	–	–	–	–	Nav1.1 current amplification rate (%) (human Nav1.1; [9]): 6%; Nav1.5 current amplification rate (%) (human Nav1.5; [10]): 10%
CC1CC=C(c2ccc(=O)n(CC(=O)N3CCN(c4cncc(OC(F)F)c4)CC3)n2)CC1 (centres unmarked) [Example 405]	–	–	–	–	Nav1.1 current amplification rate (%) (human Nav1.1; [9]): 268%; Nav1.5 current amplification rate (%) (human Nav1.5; [10]): 14%
COc1cc(=O)n(CC(=O)Nc2ccc3oc(C(F)F)nc3c2)nc1C1=CCC(C)(C)CC1 [Example 493]	–	–	–	–	activation at 3 µM (human Nav1.1; compound 3 μmol/L, HEK293 stably expressing human Nav1.1, read-out: Nav1.1 current amplification rate (%)): 317%; activation at 3 µM (human Nav1.5; compound 3 μmol/L, CHO-K1 stably expressing human Nav1.5, read-out: Nav1.5 current amplification rate (%)): 20%
CC1CC=C(c2ccc(=O)n(CC(=O)N3CCOc4c(-c5cn[nH]c5)cccc43)n2)CC1 (racemic) [Example 290]	–	–	–	–	Nav1.1 current amplification rate (%) (human Nav1.1; [9]): 94%; Nav1.5 current amplification rate (%) (human Nav1.5; [10]): 4.5%
CC1CC=C(c2ccc(=O)n(CC(=O)N3CCC(c4ccccn4)CC3)n2)CC1 (racemic) [Example 260]	13	–	−6	–	–
CC1CC=C(c2ccc(=O)n(CC(=O)Nc3ccc4ncnn4c3)n2)CC1 (racemic) [Example 339]	–	–	–	–	Nav1.1 current amplification rate (%) (human Nav1.1; [3]): 127%; Nav1.5 current amplification rate (%) (human Nav1.5; [4]): 15%
O=C(Cn1nc(C2=CCCCC2)ccc1=O)N1CCc2c(C3=CCOCC3)cccc21 [Example 528]	–	–	–	–	activation at 1 µM (human Nav1.1; [7]): 198%; activation at 1 µM (human Nav1.5; [8]): 24%
COc1cc(C2=CCC(C)C2)nn(CC(=O)N2CCN(c3cncc(F)c3)CC2)c1=O (centres unmarked) [Example 485]	264	–	3	–	–
CC1CC=C(c2ccc(=O)n(CC(=O)N3CCc4c(OCC(C)(C)O)cccc43)n2)CC1 (racemic) [Example 307]	–	–	–	–	Nav1.1 current amplification rate (%) (human Nav1.1; [9]): 320%; Nav1.5 current amplification rate (%) (human Nav1.5; [10]): 37%
Cc1c(N2CCC3(CCCC3)C2)nn(CC(=O)Nc2ccc3ocnc3c2)c(=O)c1C [Example 165]	–	146	–	11	–
N#Cc1cc(NC(=O)Cn2nc(C3=CCC(F)(F)CC3)ccc2=O)ccn1 [Example 115]	–	56	–	12	–
CC1CCN(c2ccc(=O)n(CC(=O)Nc3ccn4ccnc4c3)n2)CC1 [Example 72]	119	–	3	–	–
CC1(C)CCN(c2ccc(=O)n(CC(=O)N3CCc4c(-c5cccnc5)cccc43)n2)CC1 [Example 234]	–	–	–	–	activation at 1 µM (human Nav1.1; [7]): 240%; activation at 1 µM (human Nav1.5; [8]): 4%
CC1(C)CC=C(c2ccc(=O)n(CC(=O)N3CCc4c(C5CN(C6COC6)C5)cccc43)n2)CC1 [Example 438]	–	–	–	–	Nav1.1 current amplification rate (%) (human Nav1.1; [9]): 404%; Nav1.5 current amplification rate (%) (human Nav1.5; [10]): 25%
O=C(Cn1nc(C2=CCCCC2)ccc1=O)Nc1ccn2ccnc2c1 [Example 458]	24	–	0	–	–
O=C(Cn1nc(N2CCC3(CCCC3)C2)cc(N2CCCC2)c1=O)Nc1ccc2ocnc2c1 [Example 206]	–	154	–	33	–

The next lines start with results.

Nav1.1 current amplification rate (%) (human Nav1.1; [1])	activation at 10 µM (human Nav1.1; [5]) [%]	SMILES	Nav1.5 current amplification rate (%) (human Nav1.5; [2])	activation at 10 µM (human Nav1.5; [6]) [%]	also measured
–	246	O=C(Cn1nc(N2CCC3(CCCC3)C2)ccc1=O)Nc1cccc(-n2ccnc2)c1 [Example 123]	–	30	–
–	22	O=C(Cn1nc(N2CCC3(CCC3)CC2)ccc1=O)N1CCc2cnccc21 [Example 185]	–	2	–
–	89	O=C(Cn1nc(N2CCC3(CCC3)C2)cc(N2CCCC2)c1=O)Nc1ccc2ocnc2c1 [Example 207]	–	7	–
122	–	Cc1ccc(-c2ccc(=O)n(CC(=O)N3CCc4cc(N5CCOCC5)ccc43)n2)cc1 [Example 158]	30	–	–
–	97	CC1CCN(c2ccc(=O)n(CC(=O)N3CCc4cc(N5CCCC5=O)ccc43)n2)CC1 [Example 219]	–	12	–
–	131	Cc1cc(N2CCC3(CCC3)C2)nn(CC(=O)Nc2ccc3c(c2)OCC3)c1=O [Example 202]	–	3	–
–	285	O=C(Cn1nc(N2CCCC3(CCC3)C2)ccc1=O)Nc1ccc2scnc2c1 [Example 133]	–	12	–
28	–	COc1ccc2c(c1)CCN2C(=O)Cn1nc(C2=CCC(C)(C)CC2)ccc1=O [Example 430]	22	–	–
277	–	CC1CCC(c2ccc(=O)n(CC(=O)N3CCc4c(N5CCOCC5)cccc43)n2)CC1 (single isomer, unassigned) [Example 535]	10	–	–
–	66	O=C(Cn1nc(N2CCC3(CCC3)CC2)ccc1=O)Nc1ccn2cnnc2c1 [Example 176]	–	2	–
136	–	CC1CC=C(c2ccc(=O)n(CC(=O)N3CCc4cc(N5CCOCC5)ccc43)n2)CC1 (racemic) [Example 246]	145	–	–
60	–	CC1CC=C(c2ccc(=O)n(CC(=O)N3CCN(c4ccncc4)CC3)n2)CC1 (racemic) [Example 261]	1	–	–
–	220	O=C(Cn1nc(N2CCC3(CCC3)CC2)ccc1=O)Nc1cccc(-n2ccnc2)c1 [Example 125]	–	34	–
